From ChEMBL document CHEMBL1201861, “Genomics of Drug Sensitity in Cancer screening data, Wellcome Trust Sanger Institute”
pIC50: −log10 of the molar value.

Experiments:
Experiment in all cases: cells
HGC-27 = assay type: functional, cell-based, Homo sapiens; settings: Homo sapiens, HGC-27
Description: SANGER: Inhibition of human HGC-27 cell growth in a cell viability assay.

A673 = assay type: functional, cell-based, Homo sapiens; settings: Homo sapiens, A673
Description: SANGER: Inhibition of human A673 cell growth in a cell viability assay.

CAL-12T = assay type: functional, cell-based, Homo sapiens; settings: Homo sapiens, CAL-12T
Description: SANGER: Inhibition of human CAL-12T cell growth in a cell viability assay.

NCI-H810 = assay type: functional, cell-based, Homo sapiens; settings: Homo sapiens, NCI-H810
Description: SANGER: Inhibition of human NCI-H810 cell growth in a cell viability assay.

MKN-7 = assay type: functional, cell-based, Homo sapiens; settings: Homo sapiens, MKN-7
Description: SANGER: Inhibition of human MKN7 cell growth in a cell viability assay.

ES8 = assay type: functional, cell-based, Homo sapiens; settings: Homo sapiens, ES8
Description: SANGER: Inhibition of human ES8 cell growth in a cell viability assay.

DoTc2-4510 = assay type: functional, cell-based, Homo sapiens; settings: Homo sapiens, DoTc2-4510
NCI-H1648 = assay type: functional, cell-based, Homo sapiens; settings: Homo sapiens, NCI-H1648
Description: SANGER: Inhibition of human NCI-H1648 cell growth in a cell viability assay.

MG-63 = assay type: functional, cell-based, Homo sapiens; settings: Homo sapiens, MG-63
Description: SANGER: Inhibition of human MG-63 cell growth in a cell viability assay.

AU565 = assay type: functional, cell-based, Homo sapiens; settings: Homo sapiens, AU565
Description: SANGER: Inhibition of human AU565 cell growth in a cell viability assay.

NCI-H2052 = assay type: functional, cell-based, Homo sapiens; settings: Homo sapiens, NCI-H2052
Description: SANGER: Inhibition of human NCI-H2052 cell growth in a cell viability assay.

NCI-H510A = assay type: functional, cell-based; settings: Homo sapiens
Description: SANGER: Inhibition of human NCI-H510A cell growth in a cell viability assay.

YKG-1 = assay type: functional, cell-based, Homo sapiens; settings: Homo sapiens, YKG-1
Description: SANGER: Inhibition of human YKG-1 cell growth in a cell viability assay.

NCI-H1770 = assay type: functional, cell-based; settings: Homo sapiens
Description: SANGER: Inhibition of human NCI-H1770 cell growth in a cell viability assay.

RS4-11 = assay type: functional, cell-based; settings: Homo sapiens
Description: SANGER: Inhibition of human RS4-11 cell growth in a cell viability assay.

HSC-2 = assay type: functional, cell-based, Homo sapiens; settings: Homo sapiens, HSC-2
Description: SANGER: Inhibition of human HSC-2 cell growth in a cell viability assay.

647-V = assay type: functional, cell-based, Homo sapiens; settings: Homo sapiens, 647-V
Description: SANGER: Inhibition of human 647-V cell growth in a cell viability assay.

NCI-H2170 = assay type: functional, cell-based, Homo sapiens; settings: Homo sapiens, NCI-H2170
Description: SANGER: Inhibition of human NCI-H2170 cell growth in a cell viability assay.

ML-2 = assay type: functional, cell-based; settings: Homo sapiens
Description: SANGER: Inhibition of human ML-2 cell growth in a cell viability assay.

HCE-4 = assay type: functional, cell-based, Homo sapiens; settings: Homo sapiens, HCE-4
Description: SANGER: Inhibition of human HCE-4 cell growth in a cell viability assay.

ASPC1 = assay type: functional, cell-based, Homo sapiens; settings: Homo sapiens, ASPC1
Description: SANGER: Inhibition of human AsPC-1 cell growth in a cell viability assay.

KY821 = assay type: functional, cell-based; settings: Homo sapiens
Description: SANGER: Inhibition of human KY821 cell growth in a cell viability assay.

GCIY = assay type: functional, cell-based, Homo sapiens; settings: Homo sapiens, GCIY
Description: SANGER: Inhibition of human GCIY cell growth in a cell viability assay.

HCC1187 = assay type: functional, cell-based, Homo sapiens; settings: Homo sapiens, HCC1187
Description: SANGER: Inhibition of human HCC1187 cell growth in a cell viability assay.

769-P = assay type: functional, cell-based, Homo sapiens; settings: Homo sapiens, 769-P
Description: SANGER: Inhibition of human 769-P cell growth in a cell viability assay.

NCI-H596 = assay type: functional, cell-based, Homo sapiens; settings: Homo sapiens, NCI-H596
Description: SANGER: Inhibition of human NCI-H596 cell growth in a cell viability assay.

SW948 = assay type: functional, cell-based, Homo sapiens; settings: Homo sapiens, SW948
Description: SANGER: Inhibition of human SW948 cell growth in a cell viability assay.

T98G = assay type: functional, cell-based, Homo sapiens; settings: Homo sapiens, T98G
Description: SANGER: Inhibition of human T98G cell growth in a cell viability assay.

A704 = assay type: functional, cell-based, Homo sapiens; settings: Homo sapiens, A704
Description: SANGER: Inhibition of human A704 cell growth in a cell viability assay.

RT-112 = assay type: functional, cell-based, Homo sapiens; settings: Homo sapiens, RT-112
Description: SANGER: Inhibition of human RT-112 cell growth in a cell viability assay.

OAW-42 = assay type: functional, cell-based, Homo sapiens; settings: Homo sapiens, OAW-42
Description: SANGER: Inhibition of human OAW-42 cell growth in a cell viability assay.

A498 = assay type: functional, cell-based, Homo sapiens; settings: Homo sapiens, A498
Description: SANGER: Inhibition of human A498 cell growth in a cell viability assay.

G-401 = assay type: functional, cell-based, Homo sapiens; settings: Homo sapiens, G-401
Description: SANGER: Inhibition of human G-401 cell growth in a cell viability assay.

COLO-680N = assay type: functional, cell-based, Homo sapiens; settings: Homo sapiens, COLO-680N
Description: SANGER: Inhibition of human COLO-680N cell growth in a cell viability assay.

LU-99A = assay type: functional, cell-based, Homo sapiens; settings: Homo sapiens, LU-99A
Description: SANGER: Inhibition of human LU-99A cell growth in a cell viability assay.

OCUB-M = assay type: functional, cell-based, Homo sapiens; settings: Homo sapiens, OCUB-M
Description: SANGER: Inhibition of human OCUB-M cell growth in a cell viability assay.

NCI-H2405 = assay type: functional, cell-based, Homo sapiens; settings: Homo sapiens, NCI-H2405
Description: SANGER: Inhibition of human NCI-H2405 cell growth in a cell viability assay.

NCI-H441 = assay type: functional, cell-based; settings: Homo sapiens
Description: SANGER: Inhibition of human NCI-H441 cell growth in a cell viability assay.

A2058 = assay type: functional, cell-based; settings: Homo sapiens
Description: SANGER: Inhibition of human A2058 cell growth in a cell viability assay.

J-RT3-T3-5 = assay type: functional, cell-based; settings: Homo sapiens
Description: SANGER: Inhibition of human J-RT3-T3-5 cell growth in a cell viability assay.

YAPC = assay type: functional, cell-based, Homo sapiens; settings: Homo sapiens, YAPC
Description: SANGER: Inhibition of human YAPC cell growth in a cell viability assay.

NCI-H2452 = assay type: functional, cell-based, Homo sapiens; settings: Homo sapiens, NCI-H2452
Description: SANGER: Inhibition of human NCI-H2452 cell growth in a cell viability assay.

PFSK-1 = assay type: functional, cell-based, Homo sapiens; settings: Homo sapiens, PFSK-1
Description: SANGER: Inhibition of human PFSK-1 cell growth in a cell viability assay.

LU-134-A = assay type: functional, cell-based; settings: Homo sapiens
Description: SANGER: Inhibition of human LU-134-A cell growth in a cell viability assay.

IGROV-1 = assay type: functional, cell-based, Homo sapiens; settings: Homo sapiens, IGROV-1
Description: SANGER: Inhibition of human IGROV-1 cell growth in a cell viability assay.

HOS = assay type: functional, cell-based, Homo sapiens; settings: Homo sapiens, HOS
Description: SANGER: Inhibition of human HOS cell growth in a cell viability assay.

Calu-6 = assay type: functional, cell-based, Homo sapiens; settings: Homo sapiens, Calu-6
Description: SANGER: Inhibition of human Calu-6 cell growth in a cell viability assay.

A253 cell line = assay type: functional, cell-based, Homo sapiens; settings: Homo sapiens, A253
Description: SANGER: Inhibition of human A253 cell growth in a cell viability assay.

NKM-1 = assay type: functional, cell-based; settings: Homo sapiens
Description: SANGER: Inhibition of human NKM-1 cell growth in a cell viability assay.

LB373-MEL-D = assay type: functional, cell-based, Homo sapiens; settings: Homo sapiens, LB373-MEL-D
Description: SANGER: Inhibition of human LB373-MEL-D cell growth in a cell viability assay.

ES1 = assay type: functional, cell-based, Homo sapiens; settings: Homo sapiens, ES1
Description: SANGER: Inhibition of human ES1 cell growth in a cell viability assay.

NB14 = assay type: functional, cell-based; settings: Homo sapiens
Description: SANGER: Inhibition of human NB14 cell growth in a cell viability assay.

## Cc1cnc(-c2cnc(NCCNc3ccc(C#N)cn3)nc2-c2ccc(Cl)cc2Cl)[nH]1 [LADUVIGLUSIB]
HGC-27
  pIC50: < 5.59
A673
  pIC50: < 5.59
CAL-12T
  pIC50: < 5.59
NCI-H810
  pIC50: < 5.59
MKN-7
  pIC50: < 5.59
ES8
  pIC50: < 5.59
DoTc2-4510
  pIC50: < 5.59
NCI-H1648
  pIC50: < 5.59
MG-63
  pIC50: < 5.59
AU565
  pIC50: < 5.59
NCI-H2052
  pIC50: < 5.59
NCI-H510A
  pIC50: < 5.59
YKG-1
  pIC50: < 5.59
NCI-H1770
  pIC50: < 5.59
RS4-11
  pIC50: 5.71
HSC-2
  pIC50: < 5.59
647-V
  pIC50: < 5.59
NCI-H2170
  pIC50: < 5.59
ML-2
  pIC50: < 5.59
HCE-4
  pIC50: < 5.59
ASPC1
  pIC50: < 5.59
KY821
  pIC50: < 5.59
GCIY
  pIC50: < 5.59
HCC1187
  pIC50: < 5.59
769-P
  pIC50: 6.23
NCI-H596
  pIC50: < 5.59
SW948
  pIC50: < 5.59
T98G
  pIC50: < 5.59
A704
  pIC50: < 5.59
RT-112
  pIC50: < 5.59
OAW-42
  pIC50: < 5.59
A498
  pIC50: 5.88
G-401
  pIC50: < 5.59
COLO-680N
  pIC50: < 5.59
LU-99A
  pIC50: < 5.59
OCUB-M
  pIC50: < 5.59
NCI-H2405
  pIC50: < 5.59
NCI-H441
  pIC50: < 5.59
A2058
  pIC50: < 5.59
J-RT3-T3-5
  pIC50: < 5.59
YAPC
  pIC50: < 5.59
NCI-H2452
  pIC50: < 5.59
PFSK-1
  pIC50: < 5.59
LU-134-A
  pIC50: < 5.59
IGROV-1
  pIC50: < 5.59
HOS
  pIC50: < 5.59
Calu-6
  pIC50: < 5.59
A253 cell line
  pIC50: < 5.59
NKM-1
  pIC50: < 5.59
LB373-MEL-D
  pIC50: < 5.59
ES1
  pIC50: < 5.59

## CN(Cc1cnc2nc(N)nc(N)c2n1)c1ccc(C(=O)N[C@@H](CCC(=O)O)C(=O)O)cc1 [METHOTREXATE]
HGC-27
  pIC50: < 6.70
A673
  pIC50: < 6.70
CAL-12T
  pIC50: < 6.70
NCI-H810
  pIC50: < 6.70
MKN-7
  pIC50: < 6.70
ES8
  pIC50: < 6.70
DoTc2-4510
  pIC50: < 6.70
NCI-H1648
  pIC50: < 6.70
MG-63
  pIC50: 6.71
AU565
  pIC50: 7.21
NCI-H2052
  pIC50: < 6.70
NCI-H510A
  pIC50: < 6.70
YKG-1
  pIC50: < 6.70
NCI-H1770
  pIC50: 8.70
RS4-11
  pIC50: 8.15
HSC-2
  pIC50: < 6.70
647-V
  pIC50: < 6.70
NCI-H2170
  pIC50: < 6.70
ML-2
  pIC50: 8.30
HCE-4
  pIC50: < 6.70
ASPC1
  pIC50: < 6.70
GCIY
  pIC50: < 6.70
769-P
  pIC50: 7.34
NCI-H596
  pIC50: < 6.70
SW948
  pIC50: < 6.70
T98G
  pIC50: < 6.70
A704
  pIC50: < 6.70
RT-112
  pIC50: 6.85
OAW-42
  pIC50: < 6.70
A498
  pIC50: < 6.70
G-401
  pIC50: < 6.70
COLO-680N
  pIC50: < 6.70
LU-99A
  pIC50: < 6.70
OCUB-M
  pIC50: < 6.70
NCI-H2405
  pIC50: < 6.70
NCI-H441
  pIC50: < 6.70
A2058
  pIC50: < 6.70
J-RT3-T3-5
  pIC50: 7.71
YAPC
  pIC50: < 6.70
NCI-H2452
  pIC50: < 6.70
PFSK-1
  pIC50: < 6.70
LU-134-A
  pIC50: 7.05
HOS
  pIC50: < 6.70
Calu-6
  pIC50: < 6.70
NKM-1
  pIC50: 8.11
NB14
  pIC50: 7.12
ES1
  pIC50: 7.79

## O=C(c1cc(Cc2n[nH]c(=O)c3ccccc23)ccc1F)N1CCN(C(=O)C2CC2)CC1 [OLAPARIB]
HGC-27
  pIC50: < 5.30
A673
  pIC50: < 5.30
CAL-12T
  pIC50: < 5.30
NCI-H810
  pIC50: < 5.30
MKN-7
  pIC50: < 5.30
ES8
  pIC50: 5.76
DoTc2-4510
  pIC50: < 5.30
NCI-H1648
  pIC50: < 5.30
MG-63
  pIC50: < 5.30
AU565
  pIC50: < 5.30
NCI-H2052
  pIC50: < 5.30
NCI-H510A
  pIC50: 5.42
YKG-1
  pIC50: < 5.30
NCI-H1770
  pIC50: < 5.30
RS4-11
  pIC50: < 5.30
HSC-2
  pIC50: < 5.30
647-V
  pIC50: < 5.30
NCI-H2170
  pIC50: < 5.30
ML-2
  pIC50: 5.44
HCE-4
  pIC50: < 5.30
ASPC1
  pIC50: < 5.30
KY821
  pIC50: < 5.30
GCIY
  pIC50: < 5.30
769-P
  pIC50: < 5.30
NCI-H596
  pIC50: < 5.30
SW948
  pIC50: < 5.30
T98G
  pIC50: < 5.30
A704
  pIC50: < 5.30
RT-112
  pIC50: < 5.30
OAW-42
  pIC50: < 5.30
A498
  pIC50: < 5.30
G-401
  pIC50: < 5.30
COLO-680N
  pIC50: < 5.30
LU-99A
  pIC50: < 5.30
OCUB-M
  pIC50: < 5.30
NCI-H2405
  pIC50: < 5.30
NCI-H441
  pIC50: < 5.30
A2058
  pIC50: < 5.30
J-RT3-T3-5
  pIC50: < 5.30
YAPC
  pIC50: < 5.30
NCI-H2452
  pIC50: < 5.30
PFSK-1
  pIC50: < 5.30
LU-134-A
  pIC50: < 5.30
HOS
  pIC50: < 5.30
Calu-6
  pIC50: < 5.30
NKM-1
  pIC50: 5.90
NB14
  pIC50: < 5.30
ES1
  pIC50: 5.95
